Test results taken from patent publication US20030068615A1, “Polypeptides that bind HIV gp120 and related nucleic acids, antibodies, compositions, and methods of use” (priority 1999, published 2003).
“And” between values parts separate entries of the source, which are not always exact repeats. Equal entries are not always repeated. Where two headings read alike, the source gives them in different places.

Biological target: HIV-1LAI envelope gp120 (Human immunodeficiency virus type 1 group M subtype B, UniProt P03377)
Assay type: binding
Details: for number of radioactive decays (counts) counted: human CD4 21-mer scan, empty control 2075; for Binding Results For Window Length (counts bound-background), 9 / Binding Results For Window Length (counts bound-background), 12 / Binding Results For Window Length (counts bound-background), 15 / Binding Results For Window Length (counts bound-background), 18: STRL33 amino terminus; for Binding Results For Window Length (counts bound-background), 9: 9-mer starting at the first residue of the printed sequence; for Binding Results For Window Length (counts bound-background), 12: 12-mer starting at the first residue of the printed sequence; for Binding Results For Window Length (counts bound-background), 15: 15-mer starting at the first residue of the printed sequence; for Binding Results For Window Length (counts bound-background), 18: 18-mer starting at the first residue of the printed sequence; for Counts per 20′ Average-background: CCR5 18-mer scan, radiolabeled HIV-1LAI gp120; for Relative % of Control: mean of two syntheses and binding experiments ± average deviation, wild-type = 100%
[1] = Panel D, 9-mers and 12-mers of CD4, empty control […]
[2] = Panel G, alanine replacements and serial truncations (Z) of CD4 polypeptides, empty control 580
[3] = Panel C, 15-mers and 18-mers of CD4, empty control 556
[4] = STRL33 18-mer scan, background subtracted, first of two count columns
[5] = STRL33 18-mer scan, background subtracted, second of two count columns
[6] = Panel E, 9-mers and 12-mers of CD4, empty control 571
[7] = Panel B, 15-mers and 18-mers of CD4, empty control 575
[8] = CXCR4 18-mer scan, background subtracted, empty control 0
[9] = CXCR4 18-mer scan, empty control 412
[10] = Panel F, sequential alanine replacements of CD4 polypeptides, duplicate series, empty control 569
[11] = Panel A, 21-mers of CD4, empty control 515 and 617

ICEVEDQKEEVQ
COUNTS of radiolabeled gp120 retained [1]: 585 counts

SDTYICEVEDQK
COUNTS of radiolabeled gp120 retained [1]: 846 counts

GEQVEFSFPLAATVE
COUNTS of radiolabeled gp120 retained [2]: 10130 counts and 9572 counts

VLQNQKKVEFKIDIVVLA
COUNTS of radiolabeled gp120 retained [3]: 724 counts

GKLHQEVNLVVMRATQLQKNL [human CD4 306-326]
number of radioactive decays (counts) counted: 1776 counts

DYGFSSFNDSSQEEHQAF [STRL33 segment 9-26]
radioactive counts recorded in twenty minutes [4]: 8579.5 counts
radioactive counts recorded in twenty minutes [5]: 8909.5 counts
Binding Results For Window Length (counts bound-background), 9 (background subtracted): 701 counts
Binding Results For Window Length (counts bound-background), 12 (background subtracted): 573 counts
Binding Results For Window Length (counts bound-background), 15 (background subtracted): 595 counts
Binding Results For Window Length (counts bound-background), 18 (background subtracted): 440 counts

FQKASSIVYKKE
COUNTS of radiolabeled gp120 retained [6]: 577 counts

VQLLVFGLT
COUNTS of radiolabeled gp120 retained [1]: 815 counts

FGLTANSDTHLLQGQ
COUNTS of radiolabeled gp120 retained [7]: 625 counts

QKKVEFKIDIVV
COUNTS of radiolabeled gp120 retained [6]: 595 counts

GEQVAFSFPLAFTVE
COUNTS of radiolabeled gp120 retained [2]: 16668 counts and 13930 counts

KVTSLLIWVISLLVSLPQ
radioactive counts recorded in twenty minutes [4]: −39.5 counts
radioactive counts recorded in twenty minutes [5]: −118.5 counts

WIPALLLTIPDFIFANVS
radioactive counts recorded in twenty minutes [8]: 182 counts
radioactive counts recorded in twenty minutes [9]: 594 counts

PQIIYGNVFNLDKLICGY
radioactive counts recorded in twenty minutes [4]: −18.5 counts
radioactive counts recorded in twenty minutes [5]: −37.5 counts

QKASSIVYKKEG
COUNTS of radiolabeled gp120 retained [6]: 596 counts

FQKASSIVYKKEGEQVEF
COUNTS of radiolabeled gp120 retained [3]: 528 counts

SQKEGLHYTCSSHFPYSQ [CCR5 segment 169-]
Counts per 20′ Average-background (background subtracted): 304 counts per 20′

SVITWVVAVFASLPGIIF
Counts per 20′ Average-background (background subtracted): 46 counts per 20′

SSIVYKKEG
COUNTS of radiolabeled gp120 retained [6]: 515 counts

MIVYFLFWAPYNIVLLLN [CCR5 segment 241-]
Counts per 20′ Average-background (background subtracted): 214 counts per 20′

NWYFGNFLCKAVHVIYTV
radioactive counts recorded in twenty minutes [8]: 96 counts
radioactive counts recorded in twenty minutes [9]: 508 counts

SFWDSSQEEEQAFLQFSK
Binding Results For Window Length (counts bound-background), 9 (background subtracted): 304 counts
Binding Results For Window Length (counts bound-background), 12 (background subtracted): 303 counts
Binding Results For Window Length (counts bound-background), 15 (background subtracted): 969 counts
Binding Results For Window Length (counts bound-background), 18 (background subtracted): 4537 counts

LPYLGVSHQWKSSEDNSK
radioactive counts recorded in twenty minutes [4]: 111.5 counts
radioactive counts recorded in twenty minutes [5]: 122.5 counts

KKVEFKIDIVVLAFQKAS
COUNTS of radiolabeled gp120 retained [3]: 912 counts

NQKKVEFKI
COUNTS of radiolabeled gp120 retained [6]: 597 counts

QNQKKVEFK
COUNTS of radiolabeled gp120 retained [6]: 537 counts

EDQKEEVQL
COUNTS of radiolabeled gp120 retained [1]: 564 counts

QEFFGLNNCSSSNRLDQA [CCR5 segment 261-]
Counts per 20′ Average-background (background subtracted): 63 counts per 20′

VEKLTGSGE
COUNTS of radiolabeled gp120 retained [6]: 585 counts

VEDQKEEVQLLV
COUNTS of radiolabeled gp120 retained [1]: 657 counts

IDIVVLAFQ
COUNTS of radiolabeled gp120 retained [6]: 691 counts

MEGISIYTSDNYTEAMGS
Relative % of Control (CXCR4 (1-18) alanine variants): 56 ± 7%

SSIVYKKEGEQV
COUNTS of radiolabeled gp120 retained [6]: 615 counts

GVSNQWKSSEDNSKTFSA [STRL33 segment 313-330]
radioactive counts recorded in twenty minutes [4]: 208.5 counts
radioactive counts recorded in twenty minutes [5]: 306.5 counts

QKKVEFKID
COUNTS of radiolabeled gp120 retained [6]: 575 counts

DYHEDYGFSSFNDSSQEE [STRL33 segment 5-22]
radioactive counts recorded in twenty minutes [4]: 3357.5 counts
radioactive counts recorded in twenty minutes [5]: 3689.5 counts
Binding Results For Window Length (counts bound-background), 9 (background subtracted): 851 counts
Binding Results For Window Length (counts bound-background), 12 (background subtracted): 1554 counts
Binding Results For Window Length (counts bound-background), 15 (background subtracted): 1240 counts
Binding Results For Window Length (counts bound-background), 18 (background subtracted): 1191 counts

GYHDEAISTVVLATQMTL
radioactive counts recorded in twenty minutes [4]: 754.5 counts
radioactive counts recorded in twenty minutes [5]: 1181.5 counts

VEDQKEEVQLLVFGL
COUNTS of radiolabeled gp120 retained [7]: 3816 counts

EKLTGSGELWWQAER
COUNTS of radiolabeled gp120 retained [3]: 683 counts

EEVQLLVAGLTANSD
COUNTS of radiolabeled gp120 retained [10]: 9573 counts and 11480 counts

FKTSAQHALTSVSRGSSL
radioactive counts recorded in twenty minutes [8]: 173 counts
radioactive counts recorded in twenty minutes [9]: 585 counts

GVVTSVITWVVAVFASLP
Counts per 20′ Average-background (background subtracted): 69 counts per 20′

LVFFQKHIAKRFCKCCSI
Counts per 20′ Average-background (background subtracted): 76 counts per 20′

KNLKIEDSD
COUNTS of radiolabeled gp120 retained [1]: 612 counts

IVYKKEGEQVEF
COUNTS of radiolabeled gp120 retained [6]: 533 counts

FLPLLTMIVCYSVIIKTL
radioactive counts recorded in twenty minutes [4]: 1270.5 counts
radioactive counts recorded in twenty minutes [5]: 1195.5 counts

QKASSIVYKKEGEQV
COUNTS of radiolabeled gp120 retained [3]: 519 counts

GLTANSDTHLLQGQSLTL
COUNTS of radiolabeled gp120 retained [7]: 572 counts

LAFTVEKLTGSGELWWQAERA
COUNTS of radiolabeled gp120 retained [11]: 3577 counts

WVVAVFASLPGIIFTRSQ [CCR5 segment 153-]
Counts per 20′ Average-background (background subtracted): 87 counts per 20′

YKKEGEQVEFSFPLAFTVEKL
COUNTS of radiolabeled gp120 retained [11]: 735 counts

QGNFPLIIKNLKIEDSDT
COUNTS of radiolabeled gp120 retained [7]: 564 counts

QNQKKVEFKIDIVVLAFQ
COUNTS of radiolabeled gp120 retained [3]: 917 counts

RRQAERMSQLKRLLSEKKTCQ [human CD4, printed 42E-446]
number of radioactive decays (counts) counted: 1607 counts

KKVEFKIDIVVLAFQ
COUNTS of radiolabeled gp120 retained [3]: 951 counts

LTANSDTHLLQG
COUNTS of radiolabeled gp120 retained [1]: 534 counts

EVEDQKEEVQLLVFGLTA
COUNTS of radiolabeled gp120 retained [7]: 3647 counts

LFFLLTVPFWAHYAAAQW [CCR5 segment 77-94]
Counts per 20′ Average-background (background subtracted): 173 counts per 20′

MEGISIYTSDNYAEEMGS
Relative % of Control (CXCR4 (1-18) alanine variants): 70 ± 6%

SSSKSWITFDLKNKEVSVKRV [human CD4 246-266]
number of radioactive decays (counts) counted: 1761 counts

QEAPERASSVYTRSTGEQ [CCR5 segment 329-]
Counts per 20′ Average-background (background subtracted): 84 counts per 20′

LQGQSLTLT
COUNTS of radiolabeled gp120 retained [1]: 501 counts

ITLPFWAVDAVANWYFGN [CXCR4 segment 89-106]
radioactive counts recorded in twenty minutes [8]: 130 counts
radioactive counts recorded in twenty minutes [9]: 542 counts

QEEHQAFLQFSK
Binding Results For Window Length (counts bound-background), 9 (background subtracted): 1109 counts
Binding Results For Window Length (counts bound-background), 12 (background subtracted): 5672 counts

QKRKALKTTVILILAFFA [CXCR4 segment 233-250]
radioactive counts recorded in twenty minutes [8]: 283 counts
radioactive counts recorded in twenty minutes [9]: 695 counts

TVLQNQKKV
COUNTS of radiolabeled gp120 retained [6]: 534 counts

VSSPIYDINYYTSEPCQK [CCR5 segment 5-22]
Counts per 20′ Average-background (background subtracted): 383 counts per 20′

HKWISITEALAFFHCCLN [CXCR4 segment 281-298]
radioactive counts recorded in twenty minutes [8]: 163 counts
radioactive counts recorded in twenty minutes [9]: 575 counts

QKKVEFKIDIVVLAF
COUNTS of radiolabeled gp120 retained [3]: 1333 counts

LKNKEVSVKPVTQDPKLQMGK [human CD4 256-276]
number of radioactive decays (counts) counted: 2288 counts

DLVFVCTLPFWAYAGIHE [STRL33 segment 77-94]
radioactive counts recorded in twenty minutes [4]: 1116.5 counts
radioactive counts recorded in twenty minutes [5]: 1063.5 counts

FKIDIVVLAFQKASSIVYKKE
COUNTS of radiolabeled gp120 retained [11]: 593 counts

EEVQLLVFGLTANSDTHL
COUNTS of radiolabeled gp120 retained [7]: 783 counts

HLTLPQALPQYAGSGNLTLAL [human CD4 281-301]
number of radioactive decays (counts) counted: 2394 counts

QLQKNLTCEVWGPTSPKLMLS [human CD4 321-341]
number of radioactive decays (counts) counted: 1856 counts

TALLQGQSLTLTLES
COUNTS of radiolabeled gp120 retained [10]: 6931 counts and 5012 counts

GEQVEFSFPLTFTVE
COUNTS of radiolabeled gp120 retained [2]: 17397 counts and 18318 counts

KKLPLHLTLPQALPQYAGSGN [human CD4 276-296]
number of radioactive decays (counts) counted: 1922 counts

KIVILGLVLPLLVMVICY
Counts per 20′ Average-background (background subtracted): 65 counts per 20′

MDYQVSSPIYDIAYYTSE
Relative % of Control (CCR5 (1-18) alanine variants): 253 ± 19%

EGEQVEFSFPLAFTV
COUNTS of radiolabeled gp120 retained [3]: 3270 counts

CKCCSIFQQEAPERASSV [CCR5 segment 321-]
Counts per 20′ Average-background (background subtracted): 53 counts per 20′

KVEFKIDIVVLAFQK
COUNTS of radiolabeled gp120 retained [3]: 1051 counts

ASSIVYKKEGEQVEFSFPLAF
COUNTS of radiolabeled gp120 retained [11]: 25146 counts

TANSDTHLLQGQ
COUNTS of radiolabeled gp120 retained [1]: 549 counts

YVGVWIPALLLTIPDFIF
radioactive counts recorded in twenty minutes [8]: 124 counts
radioactive counts recorded in twenty minutes [9]: 536 counts

PFRELLLVLQLALLPAATQGK [human CD4, printed 16-26]
number of radioactive decays (counts) counted: 4356 counts

ANSDTHLLQGQSLTL
COUNTS of radiolabeled gp120 retained [7]: 542 counts

ASSIVYKKEGEQVEFSFP
COUNTS of radiolabeled gp120 retained [3]: 701 counts

FSFPLAFTVEKLTGSGELWWQ
COUNTS of radiolabeled gp120 retained [11]: 4163 counts
number of radioactive decays (counts) counted: 9673 counts

FYPNDLWVVVFQFQHIMV [CXCR4 segment 189-206]
radioactive counts recorded in twenty minutes [8]: 416 counts
radioactive counts recorded in twenty minutes [9]: 828 counts

WDQGNFPLIIKNLKI
COUNTS of radiolabeled gp120 retained [7]: 534 counts

ILLEIIKQGCEFENTVHK [CXCR4 segment 265-282]
radioactive counts recorded in twenty minutes [8]: 117 counts
radioactive counts recorded in twenty minutes [9]: 529 counts
